Laboratory results published in ChEMBL document CHEMBL5329217, “Hesperidin Methyl Chalcone reduces extracellular Aβ(25-35) peptide aggregation and fibrillation and also protects Neuro 2a cells from Aβ(25-35) induced neuronal dysfunction” (Bioorg Med Chem, 2023).
The source made the active and inactive calls. The calls are words filed in the database; no cut-off is given here.

How the values were obtained:
[1] = target: Amyloid-beta precursor protein (Homo sapiens) (UniProt P05067); assay: Disaggregation of amyloid beta (25 to 35) (unknown origin) mature fibrils at 50 ug/ml incubated for 1 to 9 days by ThT-based fluorescence microscopic analysis; conditions: dose 50.0 µg/ml, time 1-9 day
[2] = target: Acetylcholinesterase (Electrophorus electricus) (UniProt O42275); assay: Inhibition of electric eel AchE using acetylthiocholine iodide as substrate at 100 ug/ml by Ellman's method relative to control; conditions: dose 100.0 µg/ml
[3] = Antioxidant activity assessed as free radical scavenging activity at 100 ug/ml by DPPH assay relative to control; type: functional; conditions: dose 100.0 µg/ml

Amyloid-beta precursor protein (Homo sapiens), sequence (P05067 whole entry): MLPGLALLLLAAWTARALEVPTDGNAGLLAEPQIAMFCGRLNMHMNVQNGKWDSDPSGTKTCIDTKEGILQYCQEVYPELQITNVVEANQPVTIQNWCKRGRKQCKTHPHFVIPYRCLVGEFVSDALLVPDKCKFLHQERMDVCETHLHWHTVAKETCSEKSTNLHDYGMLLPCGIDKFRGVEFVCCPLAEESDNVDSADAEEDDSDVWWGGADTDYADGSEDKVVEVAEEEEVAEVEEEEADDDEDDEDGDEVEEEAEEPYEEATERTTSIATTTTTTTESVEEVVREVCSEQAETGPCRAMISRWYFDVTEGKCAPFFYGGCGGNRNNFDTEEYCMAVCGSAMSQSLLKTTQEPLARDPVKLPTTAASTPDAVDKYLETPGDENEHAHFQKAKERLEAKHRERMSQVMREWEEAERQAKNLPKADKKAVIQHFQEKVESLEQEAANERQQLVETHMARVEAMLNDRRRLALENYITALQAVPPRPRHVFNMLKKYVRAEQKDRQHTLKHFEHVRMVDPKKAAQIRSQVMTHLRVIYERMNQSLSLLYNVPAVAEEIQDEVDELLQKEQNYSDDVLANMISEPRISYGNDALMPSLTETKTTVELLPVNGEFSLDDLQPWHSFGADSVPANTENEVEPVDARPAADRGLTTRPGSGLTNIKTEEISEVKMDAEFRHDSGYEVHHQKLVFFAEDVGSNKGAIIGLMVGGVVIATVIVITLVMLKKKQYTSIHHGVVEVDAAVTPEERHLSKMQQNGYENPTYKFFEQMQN
Acetylcholinesterase (Electrophorus electricus), sequence (O42275 24-633 limits assumed): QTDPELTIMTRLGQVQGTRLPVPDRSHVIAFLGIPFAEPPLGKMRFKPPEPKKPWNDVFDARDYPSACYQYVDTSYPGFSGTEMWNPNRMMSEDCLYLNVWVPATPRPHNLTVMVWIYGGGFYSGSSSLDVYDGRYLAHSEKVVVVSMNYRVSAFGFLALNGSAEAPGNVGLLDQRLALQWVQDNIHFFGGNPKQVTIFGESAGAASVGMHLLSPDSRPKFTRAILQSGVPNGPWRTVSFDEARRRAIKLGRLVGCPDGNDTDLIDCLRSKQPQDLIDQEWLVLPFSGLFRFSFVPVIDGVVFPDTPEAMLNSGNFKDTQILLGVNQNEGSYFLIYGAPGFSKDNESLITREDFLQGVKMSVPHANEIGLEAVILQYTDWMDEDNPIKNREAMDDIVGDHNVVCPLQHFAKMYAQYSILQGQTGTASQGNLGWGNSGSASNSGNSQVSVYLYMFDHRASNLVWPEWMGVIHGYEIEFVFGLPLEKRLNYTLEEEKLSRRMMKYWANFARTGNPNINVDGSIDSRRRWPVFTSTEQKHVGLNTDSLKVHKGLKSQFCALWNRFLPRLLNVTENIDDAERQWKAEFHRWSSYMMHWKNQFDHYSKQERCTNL

SMILES	Activity [1]	inhibition [2] [%]	inhibition [3] [%]
COc1ccc2c3c1O[C@H]1C[C@@H](O)C=C[C@@]31CCN(C)C2	Active	–	–
COc1ccc([C@@H]2CC(=O)c3c(O)cc(O[C@@H]4O[C@H](CO[C@@H]5O[C@@H](C)[C@H](O)[C@@H](O)[C@H]5O)[C@@H](O)[C@H](O)[C@H]4O)cc3O2)cc1O	–	94.4	56
